Legend:
[1] = target: human phosphoinositide-3 kinase (PI3K) alpha (Homo sapiens (Human), UniProt P42336); experiment: PI3K-mediated Akt 1/2 (S473) phosphorylation in Rat-1 cells overexpressing PI3K alpha; assay type: cell-based, rat cells expressing human PI3K alpha; details: cellular assay, p-AKT(Ser473), read-out: Cell PI3K alpha IC50
Method: 2.1 Phosphoinositide-3 kinase (PI3K)-Mediated Akt 1/2 (S473) Phosphorylation in Rat-1 Cells
Rat-1 cells stably overexpressing a myristoylated form of the catalytic subunit of human phosphoinositide-3 kinase (PI3K) alpha, beta or delta were plated in 384-well plates at a density of 7500 (PI3K alpha), 6200 (PI3K beta), or 4000 (PI3K delta) cells in 30 ul complete growth medium (Dulbecco's modified Eagle's medium (DMEM high glucose) supplemented with 10% (v/v) fetal bovine serum, 1% (v/v) MEM non essential amino acids, 10 mM HEPES, 2 mM L-glutamine, 10 μg/mL puromycin and 1% (v/v) Penicillin/Streptomycin) and were incubated at […]/5% CO2/95% humidity for 24 h. Compounds were diluted in 384-well compound plates (compound master plates), to obtain 8-point serial dilutions for 40 test compounds in 90% DMSO, as well as 4 reference compounds plus 16 high controls and 16 low (inhibited) controls. Predilution plates were prepared by dispensing pipetting 250 nl of compound solutions into 384-well polypropylen plates (daugther plates), using a Hummingwell nanoliter dispenser. Compounds were prediluted by the addition of 49.75 ul complete growth medium. 10 ul of prediluted compound solution were transferred to the cell plate using a 384-well pipettor, resulting in a final DMSO concentration of 0.11%. Cells were incubated for 1 h at […]/5% CO2/95% humidity. The supernatant was removed, the cells were lysed in 20 ul of lysis buffer for AlphaScreen® SureFire® detection.
For detection of p-AKT(Ser473), the SureFire® p-Akt 1/2 (Ser473) Assay Kit (PerkinElmer, U.S.A.) was used. 5 ul of cell lysate was transferred to 384-well low volume Proxiplates for detection using a 384-well pipettor. Addition of AlphaScreen® SureFire® reagents was done according to the manufacturer's protocol. First, 5 ul of reaction buffer plus activation buffer mix containing AlphaScreen® acceptor beads was added, the plate was sealed, and incubated on a plate shaker for 2 hours at room temperature. Second, 2 ul of dilution buffer containing AlphaScreen® donor beads was added, and the plate was incubated on plate shaker as above for a further 2 hours. The plate was read on an AlphaScreen® compatible plate reader, using standard AlphaScreen® settings. Alternatively, p-AKT(Ser473) was detected with the CisBio HTRF Assay Kit: As positive control, 0.9 mM of 1-(3-(trifluoromethyl)-4-(piperazin-1-yl)phenyl)-8-(6-methoxypyridin-3-yl)-3-methyl-1H-imidazo[4,5-c]quinolin-2(3H)-one maleic acid salt in 90% (v/v) DMSO was added to the compound master plate. For compound testing, the cells were seeded at a density of 4000 (Rat-1_PI3Kdelta), 8000 (Rat-1_PI3Kalpha), or 6500 (Rat-1_PI3Kbeta) cells in 30 ul complete growth medium into 384-well plates, with a plastic surface promoting the adhesion of cells and their growth (assay plates) and were grown at 37° C./5% CO2/90% humidity for 24 h. Some 10 ul of the compound predilutions from the daughter plate were then transferred to the cells. After treatment with compound for 1 h, medium was removed and cells were lysed by the addition of 20 ul lysis buffer supplemented with blocking buffer. Detection of p-AKT(Ser473) was performed with the HTRF pAKT (Ser473) assay kit according to the manufacturer's instructions using 16 ul of cell lysate in a total detection volume of 20 ul.

PI3K alpha = PI3K alpha (Homo sapiens (Human), UniProt P42336); experiment: Biochemical assay for PI3Kalpha (Kinase-Glo format); details: enzymatic assay
PI3K alpha, sequence (P42336 21-1068): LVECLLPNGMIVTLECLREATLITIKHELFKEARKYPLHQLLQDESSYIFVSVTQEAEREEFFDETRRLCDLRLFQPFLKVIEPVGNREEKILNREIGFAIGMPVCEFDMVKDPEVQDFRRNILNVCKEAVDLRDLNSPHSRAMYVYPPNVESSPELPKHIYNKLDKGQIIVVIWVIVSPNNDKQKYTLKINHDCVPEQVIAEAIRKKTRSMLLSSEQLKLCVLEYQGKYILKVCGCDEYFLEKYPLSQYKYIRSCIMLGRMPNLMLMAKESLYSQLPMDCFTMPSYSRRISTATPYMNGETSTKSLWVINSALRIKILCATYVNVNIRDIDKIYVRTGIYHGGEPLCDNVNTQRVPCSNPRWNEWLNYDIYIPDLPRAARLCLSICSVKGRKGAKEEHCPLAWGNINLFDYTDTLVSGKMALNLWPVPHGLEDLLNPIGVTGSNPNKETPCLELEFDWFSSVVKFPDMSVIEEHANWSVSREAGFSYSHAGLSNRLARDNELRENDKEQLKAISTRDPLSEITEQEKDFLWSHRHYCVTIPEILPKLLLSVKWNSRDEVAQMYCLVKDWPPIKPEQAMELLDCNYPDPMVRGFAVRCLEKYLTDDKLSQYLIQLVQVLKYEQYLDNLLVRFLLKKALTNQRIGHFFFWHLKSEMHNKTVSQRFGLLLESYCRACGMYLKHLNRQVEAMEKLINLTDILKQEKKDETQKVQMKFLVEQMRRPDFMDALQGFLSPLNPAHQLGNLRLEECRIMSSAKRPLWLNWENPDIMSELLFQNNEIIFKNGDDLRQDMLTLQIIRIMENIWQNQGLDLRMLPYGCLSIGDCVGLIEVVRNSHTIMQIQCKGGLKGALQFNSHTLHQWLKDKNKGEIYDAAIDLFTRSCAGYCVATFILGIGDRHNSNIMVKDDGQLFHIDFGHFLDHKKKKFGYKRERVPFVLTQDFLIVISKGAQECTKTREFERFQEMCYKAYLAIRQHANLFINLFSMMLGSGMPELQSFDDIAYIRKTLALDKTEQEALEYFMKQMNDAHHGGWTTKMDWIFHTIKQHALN
PI3K alpha, sequence (P27986 461-568 partner): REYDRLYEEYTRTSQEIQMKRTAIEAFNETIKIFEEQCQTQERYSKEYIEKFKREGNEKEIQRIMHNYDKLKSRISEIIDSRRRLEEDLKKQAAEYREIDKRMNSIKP
Method: 1.1 Generation of Gene Constructs, Protein Expression and Purification
For the enzymatic assays, the preparation of PI3K gene constructs, protein expression and purification for HTS are described in WO2012/004299.
1.2 Biochemical Assays for PI3Kalpha, PI3Kbeta (Kinase-Glo Format)
The kinase reaction is performed in a final volume of 50 μl per well of a half area COSTAR, 96 well plate. The final concentrations of ATP and phosphatidyl inositol in the assay are 5 μM and 6 μg/mL, respectively. The reaction is started by the addition of PI3 kinase, e.g. PI3 kinase α.
The components of the assay are added per well as follows: • 10 μl test compound in 5% DMSO per well in […]. • Total activity is determined by addition 10 μl of 5% vol/vol DMSO in the first 4 wells of column 1 and the last 4 wells of column 12. • The background is determined by addition of 10 μM control compound to the last 4 wells of column 1 and the first 4 wells of column 12. • 2 mL ‘Assay mix’ are prepared per plate: • 1.912 mL of HEPES assay buffer • 8.33 μl of 3 mM stock of ATP giving a final concentration of 5 μM per well • 1 μl of [^33P]ATP on the activity date giving 0.05 μCi per well • 30 μl of 1 mg/mL PI stock giving a final concentration of 6 μg/mL per well • 5 μl of 1 M stock MgCl2 giving a final concentration of 1 mM per well • 20 μl of the assay mix are added per well. • 2 mL ‘Enzyme mix’ are prepared per plate (x* μl PI3 kinase p110α in 2 mL of kinase buffer). The ‘Enzyme mix’ is kept on ice during addition to the assay plates. * The volume of enzyme is dependent on the enzymatic activity of the batch in use. • 20 μl ‘Enzyme mix’ are added/well to start the reaction. • The plate is then incubated at room temperature for 90 minutes. • The reaction is terminated by the addition of 50 μl WGA-SPA bead (wheat germ agglutinin-coated Scintillation Proximity Assay beads) suspension per well. • The assay plate is sealed using TopSeal-S (heat seal for polystyrene microplates, PerkinElmer LAS [Deutschland] GmbH, Rodgau, Germany) and incubated at room temperature for at least 60 minutes. • The assay plate is then centrifuged at 1500 rpm for 2 minutes using the Jouan bench top centrifuge (Jouan Inc., Nantes, France). • The assay plate is counted using a Packard TopCount, each well being counted for 20 seconds.
In a more preferred assay, the kinase reaction is performed in a final volume of 10 μl per well of a low volume non-binding CORNING, 384 well black plate (Cat. No. #3676). The final concentrations of ATP and phosphatidyl inositol (PI) in the assay are 1 μM and 10 μg/mL, respectively. The reaction is started by the addition of ATP.
The components of the assay are added per well as follows: […]

human phosphoinositide-3 kinase (PI3K) alpha, sequence (P42336 whole entry): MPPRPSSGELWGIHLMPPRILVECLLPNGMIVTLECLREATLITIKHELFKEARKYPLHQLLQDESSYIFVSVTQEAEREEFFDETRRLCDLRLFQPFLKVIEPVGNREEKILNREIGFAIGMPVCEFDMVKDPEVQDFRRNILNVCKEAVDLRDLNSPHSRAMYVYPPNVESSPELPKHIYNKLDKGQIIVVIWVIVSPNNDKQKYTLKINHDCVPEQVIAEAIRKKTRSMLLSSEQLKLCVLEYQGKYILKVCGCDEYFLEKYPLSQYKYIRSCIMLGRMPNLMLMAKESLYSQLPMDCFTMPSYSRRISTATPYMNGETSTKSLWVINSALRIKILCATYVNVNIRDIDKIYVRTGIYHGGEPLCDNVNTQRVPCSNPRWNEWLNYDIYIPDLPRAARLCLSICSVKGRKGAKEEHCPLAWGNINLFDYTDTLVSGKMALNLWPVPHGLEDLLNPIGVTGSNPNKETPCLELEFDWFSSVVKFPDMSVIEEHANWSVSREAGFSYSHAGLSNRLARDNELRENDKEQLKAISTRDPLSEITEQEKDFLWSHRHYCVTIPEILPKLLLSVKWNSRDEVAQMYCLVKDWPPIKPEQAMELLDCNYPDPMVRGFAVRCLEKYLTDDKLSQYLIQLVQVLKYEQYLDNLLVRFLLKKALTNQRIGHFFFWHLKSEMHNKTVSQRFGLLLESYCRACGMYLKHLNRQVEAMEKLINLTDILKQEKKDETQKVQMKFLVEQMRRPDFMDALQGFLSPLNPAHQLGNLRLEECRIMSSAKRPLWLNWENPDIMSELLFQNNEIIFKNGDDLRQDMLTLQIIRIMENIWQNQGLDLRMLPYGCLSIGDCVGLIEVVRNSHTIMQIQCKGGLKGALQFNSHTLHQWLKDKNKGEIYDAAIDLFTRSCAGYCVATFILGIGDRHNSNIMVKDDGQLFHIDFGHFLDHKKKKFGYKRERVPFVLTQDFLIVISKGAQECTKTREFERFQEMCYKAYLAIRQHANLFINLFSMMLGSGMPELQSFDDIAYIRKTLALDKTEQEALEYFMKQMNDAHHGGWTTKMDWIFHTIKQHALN
human phosphoinositide-3 kinase (PI3K) alpha, sequence (Q63787 whole entry partner): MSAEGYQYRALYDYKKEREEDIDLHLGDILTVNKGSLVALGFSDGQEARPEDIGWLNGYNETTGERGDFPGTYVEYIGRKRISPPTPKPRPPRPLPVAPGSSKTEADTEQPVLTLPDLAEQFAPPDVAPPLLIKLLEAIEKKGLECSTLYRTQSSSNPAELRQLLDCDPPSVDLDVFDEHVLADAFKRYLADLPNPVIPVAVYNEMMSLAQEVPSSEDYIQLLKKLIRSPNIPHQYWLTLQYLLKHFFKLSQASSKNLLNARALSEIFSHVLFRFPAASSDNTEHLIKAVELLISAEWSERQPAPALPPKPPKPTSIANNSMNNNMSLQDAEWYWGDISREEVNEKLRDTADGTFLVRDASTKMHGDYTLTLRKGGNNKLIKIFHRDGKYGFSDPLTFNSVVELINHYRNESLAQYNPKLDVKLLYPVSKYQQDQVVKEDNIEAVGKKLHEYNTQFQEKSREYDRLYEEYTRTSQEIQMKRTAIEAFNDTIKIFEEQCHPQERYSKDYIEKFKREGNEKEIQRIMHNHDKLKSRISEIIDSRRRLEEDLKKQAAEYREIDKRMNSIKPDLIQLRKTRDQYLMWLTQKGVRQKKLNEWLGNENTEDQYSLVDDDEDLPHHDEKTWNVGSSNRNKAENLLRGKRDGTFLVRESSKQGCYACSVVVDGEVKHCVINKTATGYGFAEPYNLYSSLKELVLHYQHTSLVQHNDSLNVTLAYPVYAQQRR

| Compound | IC50 [1] [nM] | IC50 (PI3K alpha) [nM] |
| --- | --- | --- |
| Cn1cnc(-c2cccc3nc([C@@H]4CCCN4c4ncnc(N)c4C#N)n(-c4ccccc4)c(=O)c23)c1 [Example 15, (S)-4-Amino-6-(2-(5-(1-methyl-1H-imidazol-4-yl)-4-oxo-3-phenyl-3,4-dihydroquinazolin-2-yl)pyrrolidin-1-yl)pyrimidine-5-carbonitrile] | > 10000 | > 10000 |
| Cc1nc(N)nc(N2C[C@@H](O)C[C@H]2c2nc3cccc(-c4cnn(C)c4)c3c(=O)n2-c2ccccc2)c1C#N [Example 16, 2-Amino-4-((2S,4S)-4-hydroxy-2-(5-(1-methyl-1H-pyrazol-4-yl)-4-oxo-3-phenyl-3,4-dihydroquinazolin-2-yl)pyrrolidin-1-yl)-6-methylpyrimidine-5-carbonitrile] | 2700 | 180 |
| Cc1nc(N)nc(N2CCC[C@H]2c2nc3cccc(-c4cncnc4)c3c(=O)n2-c2ccccc2)c1C#N [Example 17, (S)-2-Amino-4-methyl-6-(2-(4-oxo-3-phenyl-5-(pyrimidin-5-yl)-3,4-dihydroquinazolin-2-yl)pyrrolidin-1-yl)pyrimidine-5-carbonitrile] | 5800 | 1200 |
| COc1cncc(-c2cccc3nc([C@@H]4CCCN4c4nc(N)nc(C)c4C#N)n(-c4ccccc4)c(=O)c23)c1 [Example 18, (S)-2-Amino-4-(2-(5-(5-methoxypyridin-3-yl)-4-oxo-3-phenyl-3,4-dihydroquinazolin-2-yl)pyrrolidin-1-yl)-6-methylpyrimidine-5-carbonitrile] | 420 | 56 |
| Cc1ncc(-c2cccc3nc([C@@H]4CCCN4c4nc(N)nc(C)c4C#N)n(-c4ccccc4)c(=O)c23)cn1 [Example 19, (S)-2-Amino-4-methyl-6-(2-(5-(2-methylpyrimidin-5-yl)-4-oxo-3-phenyl-3,4-dihydroquinazolin-2-yl)pyrrolidin-1-yl)pyrimidine-5-carbonitrile] | 5400 | 820 |
| Cc1nc(N)nc(N2CCC[C@H]2c2nc3cccc(-c4cccnc4)c3c(=O)n2-c2ccccc2)c1C#N [Example 20, (S)-2-Amino-4-methyl-6-(2-(4-oxo-3-phenyl-5-(pyridin-3-yl)-3,4-dihydroquinazolin-2-yl)pyrrolidin-1-yl)pyrimidine-5-carbonitrile] | 1500 | 260 |
| COc1ccc(-c2cccc3nc([C@@H]4CCCN4c4nc(N)nc(C)c4C#N)n(-c4ccccc4)c(=O)c23)cn1 [Example 21, (S)-2-Amino-4-(2-(5-(6-methoxypyridin-3-yl)-4-oxo-3-phenyl-3,4-dihydroquinazolin-2-yl)pyrrolidin-1-yl)-6-methylpyrimidine-5-carbonitrile] | 2500 | 260 |
| COc1ncc(-c2cccc3nc([C@@H]4C[C@H](O)CN4c4nc(N)nc(C)c4C#N)n(-c4ccccc4)c(=O)c23)cn1 [Example 22, 2-Amino-4-((2S,4S)-4-hydroxy-2-(5-(2-methoxypyrimidin-5-yl)-4-oxo-3-phenyl-3,4-dihydroquinazolin-2-yl)pyrrolidin-1-yl)-6-methylpyrimidine-5-carbonitrile] | > 10000 | 580 |
| Cc1nc(N)nc(N2C[C@@H](O)C[C@H]2c2nc3cccc(-c4cccnc4)c3c(=O)n2-c2ccccc2)c1C#N [Example 24, 2-Amino-4-((2S,4S)-4-hydroxy-2-(4-oxo-3-phenyl-5-(pyridin-3-yl)-3,4-dihydroquinazolin-2-yl)pyrrolidin-1-yl)-6-methylpyrimidine-5-carbonitrile] | 5000 | 170 |
| COc1cncc(-c2cccc3nc([C@@H]4C[C@H](O)CN4c4nc(N)nc(C)c4C#N)n(-c4ccccc4)c(=O)c23)c1 [Example 25, 2-Amino-4-((2S,4S)-4-hydroxy-2-(5-(5-methoxypyridin-3-yl)-4-oxo-3-phenyl-3,4-dihydroquinazolin-2-yl)pyrrolidin-1-yl)-6-methylpyrimidine-5-carbonitrile] | 1900 | 48 |
| Cc1nc(N)nc(N2C[C@@H](O)C[C@H]2c2nc3cccc(-c4cncnc4)c3c(=O)n2-c2ccccc2)c1C#N [Example 26, 2-Amino-4-((2S,4S)-4-hydroxy-2-(4-oxo-3-phenyl-5-(pyrimidin-5-yl)-3,4-dihydroquinazolin-2-yl)pyrrolidin-1-yl)-6-methylpyrimidine-5-carbonitrile] | > 6500 | 530 |
| COc1ccc(-c2cccc3nc([C@@H]4C[C@H](O)CN4c4nc(N)nc(C)c4C#N)n(-c4ccccc4)c(=O)c23)cn1 [Example 27, 2-Amino-4-((2S,4S)-4-hydroxy-2-(5-(6-methoxypyridin-3-yl)-4-oxo-3-phenyl-3,4-dihydroquinazolin-2-yl)pyrrolidin-1-yl)-6-methylpyrimidine-5-carbonitrile] | 1300 | 86 |
| Cc1nc(N)nc(N2C[C@@H](O)C[C@H]2c2nc3cccc(-c4cnn(CCO)c4)c3c(=O)n2-c2ccccc2)c1C#N [Example 28, 2-Amino-4-((2S,4S)-4-hydroxy-2-(5-(1-(2-hydroxyethyl)-1H-pyrazol-4-yl)-4-oxo-3-phenyl-3,4-dihydroquinazolin-2-yl)pyrrolidin-1-yl)-6-methylpyrimidine-5-carbonitrile] | > 10000 | 240 |
| CCOc1ncc(-c2c(F)ccc3nc([C@@H]4C[C@H](O)CN4c4nc(N)nc(C)c4C#N)n(-c4ccccc4)c(=O)c23)cn1 [Example 29, 2-Amino-4-((2S,4S)-2-(5-(2-ethoxypyrimidin-5-yl)-6-fluoro-4-oxo-3-phenyl-3,4-dihydroquinazolin-2-yl)-4-hydroxypyrrolidin-1-yl)-6-methylpyrimidine-5-carbonitrile] | 2700 | 370 |

— patent publication US9840498B2, “Substituted quinazolin-4-one derivatives” (NOVARTIS AG, priority 2013, dated 2017)
